# In US12187696B2, “Urea motif containing compounds and derivatives thereof as antibacterial drugs” (Technische Universität München, priority 2016, dated 2025):
# Test system: Staphylococcus aureus NCTC8325
# Test: Minimal inhibitory concentration (MIC) assay
# Format: cell-based
# Details: Staphylococcus aureus, NCTC8325; inhibition of bacterial growth of S. aureus NCTC 8325; obtained by MIC assay
# Description: Minimum inhibitory concentrations (MICs) represent the lowest concentration of sample that will inhibit the visible growth of a microorganism after overnight incubation, and was obtained by a 96 well plate-based assay (Thermo Scientific) with serial dilutions of the probes tested. […] Bacteria were diluted in fresh medium to a concentration of 10^5 CFU/mL. In the case of all other bacteria species tested, fresh media was inoculated 1/10000 and directly used for testing. Diluted bacterial cultures (99 μL) were added to various concentrations of probe (1 μL of the respective stock in DMSO). A growth control containing DMSO (1 μL) and cultivated medium (99 μL) and a sterile control containing fresh medium (100 μL) were run on every 96 well plate in triplicates. After incubation at 37° C. with gentle shaking (200 rpm) for 24 h, the dilution series was analysed for microbial growth, usually indicated by turbidity and/or a pellet of bacteria at the bottom of the well. The lowest concentration in the dilution series at which no growth of bacteria could be observed by eye was defined as the minimum inhibitory concentration (MIC) of the probe. MIC values were determined by three independent experiments with at least triplicate runs for each concentration. […] Both compounds were tested against various bacterial strains. […] The assay was performed as described above.
row,IC50 [µM],Compound
1,1,"O=C(Nc1ccc(C(=O)c2ccccc2)cc1)Nc1ccc(Cl)c(C(F)(F)F)c1 [Example 2, 1-(4-Benzoylphenyl)-3-(4-chloro-3-(trifluoromethyl)phenyl)urea]"
2,30,"CNC(=O)c1ccc(NC(=O)Nc2ccc(Cl)c(C(F)(F)F)c2)cc1 [Example 3, 4-(3-(4-Chloro-3-(trifluoromethyl)phenyl)ureido)-N-methylbenzamide]"
3,3,"COc1ccc(NC(=O)Nc2ccc(Cl)c(C(F)(F)F)c2)cc1 [Example 5, 1-(4-Chloro-3-(trifluoromethyl)phenyl)-3-(4-methoxyphenyl)urea]"
4,10,"O=C(Nc1ccc2c(c1)OCO2)Nc1ccc(Cl)c(C(F)(F)F)c1 [Example 6, 1-(Benzo[d][1,3]dioxol-5-yl)-3-(4-chloro-3-(trifluoromethyl)phenyl)urea]"
5,1,"O=C(Nc1ccc(Cl)c(C(F)(F)F)c1)Nc1ccc2ccccc2c1 [Example 11, 1-(4-Chloro-3-(trifluoromethyl)phenyl)-3-(naphthalen-2-yl)urea]"
6,1,"O=C(Nc1ccc(Cc2ccccc2)cc1)Nc1ccc(Cl)c(C(F)(F)F)c1 [Example 12, 1-(4-Benzylphenyl)-3-(4-chloro-3-(trifluoromethyl)phenyl)urea]"
7,1,"CCc1ccc(NC(=O)Nc2ccc(Cl)c(C(F)(F)F)c2)cc1 [Example 13, 1-(4-Chloro-3-(trifluoromethyl)phenyl)-3-(4-ethylphenyl)urea]"
8,3,"O=C(Nc1ccccc1)Nc1ccc(Cl)c(C(F)(F)F)c1 [Example 16, 1-(4-Chloro-3-(trifluoromethyl)phenyl)-3-phenylurea]"
9,0.6,"O=C(Nc1ccc(Oc2ccccc2)cc1)Nc1ccc(Cl)c(C(F)(F)F)c1 [Example 18, 1-(4-Chloro-3-(trifluoromethyl)phenyl)-3-(4-phenoxyphenyl)urea]"

# Second part, the compound before the results:
row,Compound,IC50 [µM]
1,"COC(=O)c1cccc(Oc2ccc(NC(=O)Nc3ccc(Cl)c(C(F)(F)F)c3)cc2)c1 [Example 1, Methyl 3-(4-(3-(4-chloro-3-(trifluoromethyl)phenyl)ureido)phenoxy)benzoate]",0.5
2,"COc1ccc(NC(=O)Nc2ccc(Cl)c(C(F)(F)F)c2)cc1OC [Example 7, 1-(4-Chloro-3-(trifluoromethyl)phenyl)-3-(3,4-dimethoxyphenyl)urea]",30
3,"COc1cc(NC(=O)Nc2ccc(Cl)c(C(F)(F)F)c2)cc(OC)c1OC [Example 8, 1-(4-Chloro-3-(trifluoromethyl)phenyl)-3-(3,4,5-trimethoxyphenyl)urea]",30
4,"O=C(Nc1ccc(Cl)c(C(F)(F)F)c1)Nc1cccc2c1OC(F)(F)O2 [Example 9, 1-(4-Chloro-3-(trifluoromethyl)phenyl)-3-(2,2-difluorobenzo[d][1,3]dioxol-4-yl)urea]",1
5,"FC1(F)Oc2ccc(NC(=S)Nc3ccc(Cl)c(C(F)(F)F)c3)cc2O1 [Example 10, 1-(4-Chloro-3-(trifluoromethyl)phenyl)-3-(2,2-difluorobenzo[d][1,3]dioxol-5-yl)thiourea]",1
6,"Cc1cc(NC(=O)Nc2ccc3c(c2)OC(F)(F)O3)ccc1Cl [Example 14, 1-(4-Chloro-3-methylphenyl)-3-(2,2-difluorobenzo[d][1,3]dioxol-5-yl)urea]",1
7,"O=C(Nc1cccc(C(F)(F)F)c1)Nc1ccc2c(c1)OC(F)(F)O2 [Example 15, 1-(2,2-difluorobenzo[d][1,3]dioxol-5-yl)-3-(3-(trifluoromethyl)phenyl)urea]",1
8,"CCCCOC(=O)c1ccc(NC(=O)Nc2ccc(Cl)c(C(F)(F)F)c2)cc1 [Example 17, Butyl 4-(3-(4-chloro-3-(trifluoromethyl)phenyl)ureido)benzoate]",0.6
9,O=C(Nc1cccc(NC(=O)Nc2ccc(Cl)c(C(F)(F)F)c2)c1)Nc1ccc(Cl)c(C(F)(F)F)c1 [Example 19],1
10,"C#CCCC1(CCNC(=O)c2cc(Oc3ccc(NC(=O)Nc4ccc(Cl)c(C(F)(F)F)c4)cc3)ccn2)N=N1 [Probe compound, N-(2-(3-(but-3-yn-1-yl)-3H-diazirin-3-yl)ethyl)-4-(4-(3-(4-chloro-3-(trifluoromethyl)phenyl)ureido)phenoxy)picolinamide]",10
11,"O=C(Nc1ccccc1)Nc1ccc2c(c1)OC(F)(F)O2 [Reference Example 1, 1-(2,2-Difluorobenzo[d][1,3]dioxol-5-yl)-3-phenylurea]",> 100
12,"Cc1ccc(NC(=O)Nc2ccc3c(c2)OC(F)(F)O3)cc1 [Reference Example 2, 1-(2,2-Difluorobenzo[d][1,3]dioxol-5-yl)-3-(p-tolyl)urea]",> 100
13,"Cc1cc(C)c(NC(=O)Nc2ccc3c(c2)OC(F)(F)O3)c(C)c1 [Reference Example 3, 1-(2,2-Difluorobenzo[d][1,3]dioxol-5-yl)-3-mesitylurea]",> 100
14,"CCCCCCCCNC(=O)Nc1ccc2c(c1)OC(F)(F)O2 [Reference Example 4, 1-(2,2-Difluorobenzo[d][1,3]dioxol-5-yl)-3-octylurea]",> 100
15,"CNC(=O)c1cc(Oc2ccc(NC(=O)Nc3ccccc3)cc2)ccn1 [Reference Example 5, N-Methyl-4-(4-(3-phenylureido)phenoxy)picolinamide]",> 100

# Test system: S. aureus NCTC 8325 persister cells
# Test: Persister cell assay I
# Format: cell-based
# Details: gentamicin-selected persisters in PBS; 70 h; 2.4 μM PK/X17-1-150, 24 μM sorafenib, 5 μg/mL ciprofloxacin
row,Compound,viable persister cells (CFU/mL) vs DMSO control
1,"O=C(O)c1cn(C2CC2)c2cc(N3CCNCC3)c(F)cc2c1=O [ciprofloxacin, reference compound]",no change

# Test system: S. aureus NCTC 8325 persister cells
# Test: Persister cell assay II
# Format: cell-based
# Details: TSB, with or without 30 μg/mL oxacillin; 20 h or 70 h; 2.4 μM PK/X17-1-150 or PK/X17-4-011, 24 μM sorafenib or PK/X17-2-011, 5 μg/mL ciprofloxacin
# Description: Persister cell assay II. Tryptic soy broth (50 mL in 250 mL culture flasks) was inoculated 1:1000 with overnight cultures of NCTC 8325 and grown at 37° C. and 200 rpm until an OD600 of 4 was reached or overnight (ON). Serial dilution were prepared and plated to determine the cell numbers in the inoculum. […]. […] After 20 h (A) or 70 h (B) of treatment, cells were harvested, washed two times with PBS (10000×g, 3 min), serially diluted and plated on agar plates for determination of surviving cell numbers.
row,Compound,viable persister cells (CFU/mL) vs DMSO control
1,"O=C(Nc1ccccc1)Nc1ccc2c(c1)OC(F)(F)O2 [Reference Example 1, 1-(2,2-Difluorobenzo[d][1,3]dioxol-5-yl)-3-phenylurea]",no change
2,"CNC(=O)c1cc(Oc2ccc(NC(=O)Nc3ccccc3)cc2)ccn1 [Reference Example 5, N-Methyl-4-(4-(3-phenylureido)phenoxy)picolinamide]",no change
3,"O=C(O)c1cn(C2CC2)c2cc(N3CCNCC3)c(F)cc2c1=O [ciprofloxacin, reference compound]",no change
